Data published in EP0062407A1, “Therapeutic compounds containing beta-lactams” (BEECHAM GROUP PLC, priority 1981, dated 1982).
≈ marks a conversion by molar mass, not a printed value.

Tests used:
Staph. aureus Russell = test: Synergistic activity in vitro with amoxycillin; format: cell-based, Staphylococcus aureus; parameters: Synergistic activity in vitro: unit not given beside the values; conditions: for Synergistic activity in vitro: Staph. aureus Russell
Klebsiella aerogenes E70 = test: Synergistic activity in vitro with amoxycillin; format: cell-based; parameters: Synergistic activity in vitro: unit not given beside the values; conditions: for Synergistic activity in vitro: Klebsiella aerogenes E70
E. coli JT 39 = test: Synergistic activity in vitro with amoxycillin; format: cell-based, Escherichia coli; conditions: for Synergistic activity in vitro: E. coli JT 39
S. aureus Russell = test: Antibacterial activity of quaternary amine derivatives alone; format: cell-based; conditions: Staphylococcus aureus, compound alone
K. aerogenes E70 = test: as above; format: cell-based; conditions: Klebsiella aerogenes, compound alone
E. coli JT39 = test: as above; format: cell-based; conditions: Escherichia coli, compound alone
[1] = amoxycillin with inhibitor, Inhibitor Conc 1
[2] = amoxycillin with inhibitor, Inhibitor Conc 5
[3] = amoxycillin alone, no inhibitor

SMILES	Synergistic activity in vitro (Staph. aureus Russell; [1])	Synergistic activity in vitro (Klebsiella aerogenes E70; [1])	Synergistic activity in vitro (Klebsiella aerogenes E70; [2])	Synergistic activity in vitro (E. coli JT 39; [1])	Synergistic activity in vitro (E. coli JT 39; [2])	MIC (S. aureus Russell) [µg/mL]	MIC (K. aerogenes E70) [µg/mL]	MIC (E. coli JT39) [µg/mL]	other results
C[N+](C)(C/C=C1\O[C@@H]2CC(=O)N2[C@H]1C(=O)[O-])Cc1ccccc1 [Example No 1, 9-(N-Benzyl-N,N-dimethyl)ammonio-9-deoxyclavulanate]	0.62	6.2	3.1	8	2				Synergistic activity in vitro (Staph. aureus Russell; [2]): 0.08
CC1(C)S[C@@H]2[C@H](NC(=O)[C@H](N)c3ccc(O)cc3)C(=O)N2[C@H]1C(=O)O [Amoxycillin, reference compound]									MIC µg/ml amoxycillin (Staph. aureus Russell; S. aureus Russell, amoxycillin alone): 500 µg/mL; Synergistic activity in vitro (Staph. aureus Russell; [3]): 1000; MIC µg/ml amoxycillin (Klebsiella aerogenes E70; K. aerogenes E70, amoxycillin alone): 1000 µg/mL; Synergistic activity in vitro (Klebsiella aerogenes E70; [3]): 500; MIC µg/ml amoxycillin (E. coli JT 39; E. coli JT39, amoxycillin alone): 2000 µg/mL; Synergistic activity in vitro (E. coli JT 39; [3]): ≥2000
CC[N+](C)(C)C/C=C1\O[C@@H]2CC(=O)N2[C@H]1C(=O)[O-] [Example No. 5, 9-(N,N-dimethyl-N-ethyl)ammonio-9-deoxyclavulanate]						31 (≈ 122 µM)	250 (≈ 983 µM)	62 (≈ 244 µM)	
C[N+](C)(C)C/C=C1\O[C@@H]2CC(=O)N2[C@H]1C(=O)[O-] [Example No. 7, 9-N,N,N,-trimethylammonio-9-deoxyclavulanate]						4 (≈ 16.6 µM)	62.5 (≈ 260 µM)	16 (≈ 66.6 µM)	
CC[N+](CC)(CC)C/C=C1\O[C@@H]2CC(=O)N2[C@H]1C(=O)[O-] [Example No. 6, 9-N,N,N-triethylammonio-9-deoxyclavulanate]						31 (≈ 110 µM)	500 (≈ 1770 µM)	125 (≈ 443 µM)	
CC[N+](C)(C/C=C1\O[C@@H]2CC(=O)N2[C@H]1C(=O)[O-])Cc1ccccc1 (some centres unmarked) [Example No 2, 9-(N-Benzyl-N-ethvl-N-methyl)ammonio-9-deoxyclavulanate]	0.16	12.5	3.1	16	4				
